Reference: ChEMBL document CHEMBL1144125, “Excavatolides U-Z, new briarane diterpenes from the gorgonian briareum excavatum” (1999)
Values after ≈ are worked out from the molar mass of the structure shown.

What was measured:
Assay type in all cases: functional
Conditions in all cases: read-out: ED50 (the source's name)
A549 = assay: Cytotoxicity against human A549 cells
HT-29 = assay: Cytotoxicity against human HT-29 cells
KB = assay: Cytotoxicity against human KB cells
P388 = assay: Cytotoxicity against mouse P388 cells

| SMILES | EC50 (A549) [µg/mL] | EC50 (HT-29) [µg/mL] | EC50 (KB) [µg/mL] | EC50 (P388) [µg/mL] |
| --- | --- | --- | --- | --- |
| CCCC(=O)O[C@@H]1C=C[C@]2(C)[C@H](OC(C)=O)C[C@@H](OC(C)=O)/C(C)=C\[C@@H]3OC(=O)[C@@]4(C)O[C@]34[C@H](OC(C)=O)[C@H]2[C@@]1(C)O | > 50 | > 50 | > 50 | > 50 |
| CCC(=O)O[C@@H]1C[C@@H](OC(C)=O)[C@@]2(C)C=C[C@@H](OC(C)=O)[C@](C)(O)[C@@H]2[C@@H](OC(C)=O)[C@]23O[C@]2(C)C(=O)O[C@H]3/C=C\1C | > 50 | 15.1 (≈ 26.1 µM) | > 50 | 9.5 (≈ 16.4 µM) |
| CCCC(=O)O[C@H]1C/C(C)=C\[C@@H]2OC(=O)[C@@]3(C)O[C@]23[C@H](OC(C)=O)[C@H]2[C@@H](C)[C@@H](OC(=O)CC)C[C@H](OC(C)=O)[C@]2(C)[C@@H]1OC(C)=O [EXCAVATOLIDE U] | > 50 | > 50 | > 50 | > 50 |
| CCC(=O)O[C@H]1C[C@H](OC(C)=O)[C@@]2(C)[C@H]([C@H]1C)[C@@H](OC(C)=O)[C@]13O[C@]1(C)C(=O)O[C@H]3/C=C(/C)C[C@H](OC(C)=O)[C@H]2OC(C)=O [EXCAVATOLIDE V] | 19.1 (≈ 30.7 µM) | 20.4 (≈ 32.8 µM) | 7 (≈ 11.2 µM) | 3.9 (≈ 6.26 µM) |
| CCC(=O)O[C@H]1C[C@H](OC(C)=O)[C@@]2(C)[C@H]([C@H]1C)[C@@H](O)[C@]13O[C@]1(C)C(=O)O[C@H]3/C=C(/C)CC[C@H]2OC(C)=O [EXCAVATOLIDE W] | > 50 | > 50 | > 50 | 19.4 (≈ 37.1 µM) |
